In patent EP1709964A2, “A method of cosmetic depigmentation care by applying at least one aurone” (ENGELHARD LYON, priority 2005, dated 2006):
Where two headings read alike, the source gives them in different places.

Tests used:
Human tyrosinase [1] = molecular target: T1, Human tyrosinase (Homo sapiens, UniProt P14679); test: Inhibition of human tyrosinase in a monolayer after 24 h application of the actives on normal human melanocytes (MBTH/L-Dopa, OD 490 nm/protein); type: cell-based; details: for inhibition at 1000 µM: 10^-3 M; for Inhibition (%): model of Example 15
T1 construct: Normal human melanocytes (originating from abdominal plasty) are sown in a 24-well plate; endogenous in cells; host or cells: normal human melanocytes from abdominal plasty; donors of light, brown and black phototype
T1 sequence (P14679 19-529): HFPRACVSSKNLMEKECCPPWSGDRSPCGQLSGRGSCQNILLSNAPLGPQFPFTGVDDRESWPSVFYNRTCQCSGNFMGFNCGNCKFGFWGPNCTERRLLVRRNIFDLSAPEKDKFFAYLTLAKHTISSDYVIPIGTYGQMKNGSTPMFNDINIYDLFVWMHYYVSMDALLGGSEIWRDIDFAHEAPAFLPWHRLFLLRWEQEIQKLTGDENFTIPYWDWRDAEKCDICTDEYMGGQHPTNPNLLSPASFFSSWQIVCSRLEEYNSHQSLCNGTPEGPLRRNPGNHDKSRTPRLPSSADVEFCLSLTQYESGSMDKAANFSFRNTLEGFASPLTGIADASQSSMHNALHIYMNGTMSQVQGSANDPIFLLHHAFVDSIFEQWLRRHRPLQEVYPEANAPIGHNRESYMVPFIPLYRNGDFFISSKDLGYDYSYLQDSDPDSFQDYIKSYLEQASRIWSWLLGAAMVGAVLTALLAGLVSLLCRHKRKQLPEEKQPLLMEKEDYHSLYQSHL
Description: Normal human melanocytes (originating from abdominal plasty) are sown in a 24-well plate at the rate of 80,000 cells per well. They are cultivated up to confluence and the actives are applied for 24 hours in the culture media. After 24 hours, the media are removed and the melanocytes are picked up by mechanical action. An extraction is made by heat shock and the supernatants are then recovered and then incubated with MBTH (Sigma) and L-Dopa (Sigma).
The compound obtained in Example 9b was tested on melanocytes originating from various donors but of light phototypes according to the method described in Example 15. […] Table 6 : Inhibition of tyrosinase by compound 9b on 4 different donors.
The compound obtained in Example 9b is tested on cultures of melanocytes originating from 2 donors of brown phototypes and from one donor of negroid phototype. The method applied is that described in Example 15.
(§1) A study is made with molecules known in the literature for their depigmenting activity. These molecules are applied to the model described in Example 15 so as to compare their efficiency with respect to the aurones described above.

normal human melanocytes = test: Cytotoxicity by PNPP determination (percentage viability); type: cell-based; details: 24 hours at 37°C, with respect to non-treated wells
Description: The cytotoxicity of the actives is studied on normal human melanocytes in a 24-well plate by a determination with PNPP (P-nitrophenyl phosphate), a substance which is converted into p-nitrophenol by the intracellular acid phosphatases of viable cells.
The absorbance of p-nitrophenol at 405 nm is directly proportional to the number of viable cells.
The actives are tested at 2 different concentrations (10^-4 M and 10^-5 M) and are added to the culture medium and are incubated at 37°C for 24 hours. The determination with PNPP is carried out on a cell mat and the results are expressed as a percentage viability with respect to the negative control (non-treated wells). The results obtained are summarized in Table 9 below : Tableau 9 : Percentages viability obtained for the various aurone derivatives on normal human melanocytes (the molecules were tested at 2 concentrations 10^-4 and 10^-5 M.

tyrosinase from mushroom = test: In vitro test of the inhibition of isolated tyrosinase (L-DOPA to dopachrome, OD 490 nm); type: biochemical; details: for Inhibition of tyrosinase from mushroom, percentage inhibition: 490 nm
Excerpt: Tyrosinase catalyses the formation of L-dopaquinone, and then dopachrome, from L-Dopa. Dopachrome is a colored compound which is quantifiable by visible spectrophotometry at 490 nm. The use of an active which is capable of modifying the enzymatic activity manifests itself by a variation in the optical density at 490nm.
The ratio of the rates of formation of the dopachrome enables the activations or the inhibitions obtained with the various molecules tested to de determined precisely.
The sample to be tested is incubated in the presence of tyrosinase from mushroom (Sigma) for 5 minutes under agitation. L-DOPA (Sigma), substrate of the tyrosinase, is incubated for 10 minutes in the dark in the presence or the absence of the molecules to be tested. The calculation of the percentage inhibition is made by comparing the OD of the test to the OD of the negative control without molecule.
Within the context of this in vitro test, the aurone derivatives were tested at final concentrations of 10^-4M and 10^-5M.

Human tyrosinase [2] = molecular target: T1, Human tyrosinase; test: In vitro test of the inhibition of human tyrosinase from melanocyte extract (L-Dopa/MBTH, OD 490 nm); type: biochemical; details: isolated human tyrosinase, read-out: Inhibition of human tyrosinase, percentage inhibition
Description: Human tyrosinase obtained from melanocyte extracts originating from healthy donors catalyses the formation of L-Dopaquinone from L-Dopa. L-dopaquinone can be quantified by visible spectrophotometry at 490 nm by virtue of a chromogen : 3-methyl-2-benzothiazolinone hydrazone (MBTH).
The melanocyte extract is obtained after lysis of the cell membranes of the normal human melanocytes which lysis is carried out by a heat shock. The supernatant is recovered and then incubated with MBTH (Sigma) and L-Dopa (Sigma).

melanocytes = tested on: melanocytes
Excerpt: as §1

[3] = 10^-4M, 24 hours, read-out: Inhibition of human tyrosinase after application on normal human melanocytes, percentage inhibition
[4] = 10^-5M, 24 hours, read-out: Inhibition of human tyrosinase after application on normal human melanocytes, percentage inhibition

| Molecule | Percentages viability (normal human melanocytes; 10^-4 M) [%] | Percentages viability (normal human melanocytes; 10^-5 M) [%] | inhibition at 100 µM (Human tyrosinase [1]; [3]) [%] | inhibition at 10 µM (Human tyrosinase [1]; [4]) [%] | Inhibition of tyrosinase from mushroom, percentage inhibition (tyrosinase from mushroom; 10^-4M) [%] | Inhibition of tyrosinase from mushroom, percentage inhibition (tyrosinase from mushroom; 10^-5M) [%] | other results |
| --- | --- | --- | --- | --- | --- | --- | --- |
| 4,6-Dihydroxybenzofuran-3(2H)-one (R1 = OH) and 6-Hydroxybenzofuran-3(2H)-one (R1 = H) [Example 2] | 103.84 | 126.09 | – | – | – | – | Inhibition of human tyrosinase after application on normal human melanocytes, percentage inhibition (Human tyrosinase [1]; 10^-5M, 24 hours): 9.69% |
| COc1cc(OC)c2c(c1)OCC2=O [Example 4, 4,6-Dimethoxybenzofuran-3(2H)-one] | 106.77 | 85.33 | 0 | 0 | – | – | – |
| COc1cc(OC)c2c(c1)O/C(=C\c1ccccc1)C2=O [Example 5, (Z)-2-Benzylidene-4,6-dimethoxybenzofuran-3(2H)-one] | 83.1 | 98.55 | 0 | 0 | 0 ± 1.58 | 0 ± 0.28 | – |
| COc1cc(OC)c2c(c1)O/C(=C\c1ccc(O)cc1)C2=O [Example 5a, (Z)-4,6-dimethoxy-2-(4'-hydroxybenzylidene)benzofuran-3(2H)-one] | 104.53 | 90.87 | 14.4 | 27.4 | 0 ± 1.33 | 0 ± 3.90 | – |
| CCc1ccc(/C=C2\Oc3cc(OC)cc(OC)c3C2=O)cc1 [Example 5b, (Z)-4,6-dimethoxy-2-(4'-ethylbenzylidene)benzofuran-3(2H)-one] | – | 99.62 | – | 19.4 | 0 ± 4.21 | 0 ± 2.5 | – |
| COc1cc(OC)c2c(c1)O/C(=C\c1ccc(SC)cc1)C2=O [Example 5c, (Z)-4,6-dimethoxy-2-(4'-methylthiobenzylidene)benzofuran-3(2H)-one] | 80.08 | 136.13 | 0 | 4.27 | 0 ± 1.64 | 1.07 ± 4.37 | – |
| COc1cc(OC)c2c(c1)O/C(=C\c1ccc(C#N)cc1)C2=O [Example 5d, (Z)-2-(4-cyanobenzylidene)-4,6-dimethoxybenzofuran-3(2H)-one] | 98.93 | 96.51 | 0 | 0 | 0 ± 2.42 | 0 ± 5.47 | – |
| COc1cc(O)c2c(c1)O/C(=C\c1ccccc1)C2=O [Example 6, (Z)-2-Benzylidene-4-hydroxy-6-methoxybenzofuran-3(2H)-one] | – | 121.56 | – | 0 | 31.22 ± 3.94 | 0 ± 2.27 | – |
| COc1cc(O)c2c(c1)O/C(=C\c1ccc(SC)cc1)C2=O [Example 6c] | – | 116.24 | – | 14.2 | 23.65 ± 9.36 | 0 ± 5.84 | – |
| COc1cc(O)c2c(c1)O/C(=C\c1ccc(C#N)cc1)C2=O [Example 6d] | 85.65 | 119.36 | 2.31 | 0 | 0 ± 3.51 | 0 ± 3.94 | – |
| CCc1ccc(/C=C2\Oc3cc(O)cc(O)c3C2=O)cc1 [Example 7b] | 63.52 | 143.15 | – | 4.52 | 54.57 ± 3.01 | 14.63 ±6.73 | – |
| O=C1/C(=C/c2ccc(O)cc2)Oc2cc(O)cc(O)c21 [Example 9b, (Z)-4,6-Dihydroxy-2-(4'-hydroxybenzylidene)benzofuran-3(2H)-one] | 90.31 | 128.39 | 75.3 | 35.2 | 23.85 ± 2.42 | 0 ± 1.73 | inhibition at 100 µM (Human tyrosinase [2]; 10^-4M): 18 ± 1.6%; inhibition at 10 µM (Human tyrosinase [2]; 10^-5M): 5.62 ± 2.73%; Inhibition of human tyrosinase after application on normal human melanocytes, percentage inhibition (Human tyrosinase [1]; 10^-4M, 24 hours): 75.31 ± 8.51%; Inhibition of human tyrosinase after application on normal human melanocytes, percentage inhibition (Human tyrosinase [1]; 10^-5M, 24 hours): 35.23 ± 2.34%; inhibition at 100 µM (Human tyrosinase [1]; Donor 1 (light phototype), 10^-4 M, read-out: Inhibition of tyrosinase): 37.8%; inhibition at 10 µM (Human tyrosinase [1]; Donor 1 (light phototype), 10^-5 M, read-out: Inhibition of tyrosinase): -9.77%; inhibition at 100 µM (Human tyrosinase [1]; Donor 2 (light phototype), 10^-4 M, read-out: Inhibition of tyrosinase): 43%; inhibition at 10 µM (Human tyrosinase [1]; Donor 2 (light phototype), 10^-5 M, read-out: Inhibition of tyrosinase): -7.56%; inhibition at 100 µM (Human tyrosinase [1]; Donor 3 (light phototype), 10^-4 M, read-out: Inhibition of tyrosinase): 63.4%; inhibition at 10 µM (Human tyrosinase [1]; Donor 3 (light phototype), 10^-5 M, read-out: Inhibition of tyrosinase): 24.7%; inhibition at 1000 µM (Human tyrosinase [1]; Donor A, brown phototype, read-out: Inhibitions of tyrosinase): 97.5%; inhibition at 100 µM (Human tyrosinase [1]; Donor A, brown phototype, 10^-4 M, read-out: Inhibitions of tyrosinase): 45%; inhibition at 10 µM (Human tyrosinase [1]; Donor A, brown phototype, 10^-5 M, read-out: Inhibitions of tyrosinase): 25.4%; inhibition at 1000 µM (Human tyrosinase [1]; Donor B, brown phototype, read-out: Inhibitions of tyrosinase): 91.8%; inhibition at 100 µM (Human tyrosinase [1]; Donor B, brown phototype, 10^-4 M, read-out: Inhibitions of tyrosinase): 67%; inhibition at 10 µM (Human tyrosinase [1]; Donor B, brown phototype, 10^-5 M, read-out: Inhibitions of tyrosinase): 31.8%; inhibition at 100 µM (Human tyrosinase [1]; Donor S (light phototype), 10^-4 M, read-out: Inhibition of tyrosinase): 75.3%; inhibition at 10 µM (Human tyrosinase [1]; Donor S (light phototype), 10^-5 M, read-out: Inhibition of tyrosinase): 35.2%; inhibition at 100 µM (Human tyrosinase [1]; Donor, 10^-4 M, read-out: Inhibition): 65.8%; inhibition at 10 µM (Human tyrosinase [1]; Donor, 10^-5 M, read-out: Inhibition): 39.5% |
| O=c1cc(CO)occ1O [Kojic acid, kojic acid] | – | – | – | – | – | – | inhibition (positive control) (tyrosinase from mushroom; kojic acid at 0.01%): 45% |
| O=C1O[C@H]([C@@H](O)CO)C(O)=C1OP(=O)(O)O [VitC PMG, reference compound] | – | – | – | – | – | – | cytotoxicity (melanocytes): no; Inhibition (%) (Human tyrosinase [1]; 0.03%): 2.93%; Inhibition (%) (Human tyrosinase [1]; 0.3%): 1.55%; Inhibition (%) (Human tyrosinase [1]; 3%): -3.49% |
